{
  "source": "the supplement of paper PMC3974653",
  "note": "Structures can show the parent of a compound that is named as a salt.",
  "data": [
    {"tested_on": "MTT (mouse pheochromocytoma)", "assay": "IC50 of cell viability (ATP content)", "details": "(24 or 48 h)", "summary_of_the_method": "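Cells of the MTT mouse pheochromocytoma line, 5 µl per well at 200,000 cells/ml, were grown overnight at 37°C, 5% CO2 in white 1536-well plates with DMEM, 5% FBS and 1% horse serum. Pintool transfer then delivered 23 nl of library compound in DMSO, giving 8 final concentrations from 0.5 nM to 46 µM, for an exposure of 24 or 48 hrs. Luminescence from CellTiter-Glo was read after 15 minutes and referenced to positive-control wells (100%) and DMSO wells (0%). IC50 was calculated with a four-parameter logistic fit.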", "units": {"IC50 of cell viability": "µM"}, "values": [
      {"compound": "COCCOCCO", "note": "[Diethylene glycol monomethyl ether]", "IC50 of cell viability": "> 46"},
      {"compound": "CC1(C)O[C@@H]2C[C@H]3[C@@H]4CC\\C5=C\\C(=O)\\C=C/[C@]5(C)[C@H]4C(O)C[C@]3(C)[C@@]2(O1)C(=O)CO", "note": "(stereo partly specified) [DESONIDE]", "IC50 of cell viability": "> 46"},
      {"compound": "NC(=O)[C@@H]1CCCN1C(=O)[C@H](Cc1cnc[nH]1)NC(=O)[C@@H]1CCC(=O)N1", "note": "[PROTIRELIN]", "IC50 of cell viability": "> 46"},
      {"compound": "O=C(OCc1ccccc1)c1cccnc1", "note": "[BENZYL NICOTINATE]", "IC50 of cell viability": "> 46"},
      {"compound": "Oc1ccc(/C=C\\c2cc(O)cc(O)c2)cc1", "note": "[Resveratrol]", "IC50 of cell viability": "> 46"},
      {"compound": "CCCN1CCC[C@@H]2Cc3nc(N)ncc3C[C@H]21", "note": "[LY-163,502]", "IC50 of cell viability": "> 46"},
      {"compound": "CC(C)(CO)[C@@H](O)C(=O)NCCC(=O)NCCSSCCNC(=O)CCNC(=O)[C@H](O)C(C)(C)CO", "note": "[PANTETHINE]", "IC50 of cell viability": "> 46"},
      {"compound": "NCCNC(=O)c1ccc(Cl)cn1", "note": "[LAZABEMIDE HYDROCHLORIDE]", "IC50 of cell viability": "> 46"},
      {"compound": "Cc1ccc(S(=O)(=O)NC(=O)NC2CCCC2)cc1", "note": "[TOLPENTAMIDUM]", "IC50 of cell viability": "> 46"},
      {"compound": "CC(C)OC(=O)C(\\C(=O)OC(C)C)=C1\\SC=CS1", "note": "[malotilate]", "IC50 of cell viability": "> 46"},
      {"compound": "CC(C)(C)NCC(O)c1ccc(O)c(CO)c1", "note": "(stereo unspecified) [SALBUTAMOL]", "IC50 of cell viability": "> 46"},
      {"compound": "c1ccc(C2(N3CCCC3)CCCCC2)cc1", "note": "[Rolicyclidine]", "IC50 of cell viability": "> 46"},
      {"compound": "CN/C(=C\\[N+](=O)[O-])NCCSCc1ccc(CN(C)C)o1", "note": "[RANITIDINE]", "IC50 of cell viability": "> 46"},
      {"compound": "C1C\\N=C(/N1)C2COC3=C(O2)C=CC=C3", "note": "(stereo unspecified) [IDAZOXAN]", "IC50 of cell viability": "> 46"},
      {"compound": "N[C@@H](C(=O)N[C@H]1[C@H]2SC\\C(=C(/N2C1=O)C(O)=O)CSC3=C[NH]N=N3)C4=CC=C(O)C=C4", "note": "[CEFATRIZINE]", "IC50 of cell viability": "> 46"},
      {"compound": "CCCC(CCC)C(N)=O", "note": "[Valpromide]", "IC50 of cell viability": "> 46"},
      {"compound": "C=Cc1ccccc1", "note": "[Styrene]", "IC50 of cell viability": "> 46"},
      {"compound": "COP(=O)(OC)OC(c1ccc(Cl)cc1)P(=O)(OC)OC", "note": "(stereo unspecified) [MIFOBATUM]", "IC50 of cell viability": "> 46"},
      {"compound": "C[C@H]1C[C@H]2[C@@H]3CCC4=CC(=O)C=C[C@]4(C)[C@H]3C(=O)C[C@]2(C)[C@@]1(O)C(=O)CO", "note": "[Meprednisone]", "IC50 of cell viability": "> 46"},
      {"compound": "CCOC(=O)Nc1ccc(NCc2ccc(F)cc2)nc1N", "note": "[Flupirtine maleate salt]", "IC50 of cell viability": "> 46"},
      {"compound": "CNCCC(Oc1ccccc1OC)c1ccccc1", "note": "(stereo unspecified) [NISOXETINE]", "IC50 of cell viability": "> 46"},
      {"compound": "CO[C@]12C[C@@H](COC(=O)c3cncc(Br)c3)CN(C)[C@@H]1Cc1cn(C)c3cccc2c13", "note": "[NICERGOLINE]", "IC50 of cell viability": "> 46"},
      {"compound": "COC1=C2OC3C(O)\\C=C/C4[C@H]5CC(=C2[C@@]34CCN5C)C=C1", "note": "(stereo partly specified) [Codeine]", "IC50 of cell viability": "> 46"},
      {"compound": "Cc1c(N)nc([C@@H](CC(N)=O)NC[C@H](N)C(N)=O)nc1C(=O)N[C@H](C(=O)N[C@@H](C)[C@@H](O)[C@@H](C)C(=O)N[C@H](C(=O)NCCc1nc(-c2nc(C(=O)NCCCN[C@H](C)c3ccccc3)cs2)cs1)[C@H](C)O)[C@@H](O[C@H]1O[C@@H](CO)[C@H](O)[C@@H](O)[C@H]1O[C@H]1O[C@@H](CO)[C@@H](O)[C@H](OC(N)=O)[C@H]1O)c1cnc[nH]1", "note": "[PEPLOMYCIN SULFATE]", "IC50 of cell viability": "> 46"},
      {"compound": "O=C(O)CCCCC1SCC2NC(=O)NC21", "note": "(stereo unspecified) [Vitamin B7]", "IC50 of cell viability": "> 46"},
      {"compound": "NCCCCC(NC(=O)C1CCCN1C(=O)C1CSSCC(N)C(=O)NC(Cc2ccc(O)cc2)C(=O)NC(Cc2ccccc2)C(=O)NC(CCC(N)=O)C(=O)NC(CC(N)=O)C(=O)N1)C(=O)NCC(N)=O", "note": "(stereo unspecified) [Lypressin]", "IC50 of cell viability": "> 46"},
      {"compound": "CO/N=C(\\C(=O)N[C@@H]1C(=O)N2C(C(=O)OCOC(=O)C(C)(C)C)=C(C)CS[C@H]12)c1csc(N)n1", "note": "[CEFETAMET PIVOXIL HCl]", "IC50 of cell viability": "> 46"},
      {"compound": "O=C1N=C2SCCN2C(=O)C1Cc1ccc(Cl)cc1", "note": "(stereo unspecified) [NUCLOMEDONUM]", "IC50 of cell viability": "> 46"},
      {"compound": "OC[C@@H]1CC[C@H](n2cnc3c(O)ncnc32)O1", "note": "[Didanosine]", "IC50 of cell viability": "> 46"},
      {"compound": "C[C@]12CC[C@@H]3c4ccc(O)cc4CC[C@H]3[C@@H]1CCC2OC(=O)CCC1CCCC1", "note": "(stereo partly specified) [ESTRADIOL CYPIONATE]", "IC50 of cell viability": "> 46"},
      {"compound": "CC[C@@H]([C@H](C)O)N1\\N=C/N(C1=O)C2=CC=C(C=C2)N3CCN(CC3)C4=CC=C(OCC5CO[C@@](C5)(C[N]6C=NC=N6)C7=C(F)C=C(F)C=C7)C=C4", "note": "(stereo partly specified) [Posaconazole]", "IC50 of cell viability": "> 46"},
      {"compound": "CCC1(c2cnc[nH]2)Cc2ccccc2C1", "note": "[Atipamezole Hydrochloride]", "IC50 of cell viability": "> 46"},
      {"compound": "O=C1/C(=C2\\Nc3ccc([S+](=O)([O-])O)cc3C2=O)Nc2ccc([S+](=O)([O-])O)cc21", "note": "[Indigo carmine]", "IC50 of cell viability": "> 46"},
      {"compound": "Nc1ccc(Cl)cc1", "note": "[p-Chloroaniline]", "IC50 of cell viability": "> 46"},
      {"compound": "CO/N=C(/C(=O)N[C@@H]1C(=O)N2C(C(=O)O)=C(COC(N)=O)CS[C@H]12)c1ccco1", "note": "[Cefuroxime Free Acid]", "IC50 of cell viability": "> 46"},
      {"compound": "c1cc2ccc3cccc4ccc(c1)c2c34", "note": "[PYRENE]", "IC50 of cell viability": "> 46"}
    ]}
  ]
}
